Assay results as given in patent publication US20240158412A1 (Faxian Therapeutics, LLC, priority 2021, published 2024).

Target: USP7 (Homo sapiens, UniProt Q93009)
Test: biochemical
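Also: fluorescence intensity readout of USP7 enzymatic activity, reaction incubated 90 min at room temperature.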

Sequence of USP7 (Q93009 whole entry): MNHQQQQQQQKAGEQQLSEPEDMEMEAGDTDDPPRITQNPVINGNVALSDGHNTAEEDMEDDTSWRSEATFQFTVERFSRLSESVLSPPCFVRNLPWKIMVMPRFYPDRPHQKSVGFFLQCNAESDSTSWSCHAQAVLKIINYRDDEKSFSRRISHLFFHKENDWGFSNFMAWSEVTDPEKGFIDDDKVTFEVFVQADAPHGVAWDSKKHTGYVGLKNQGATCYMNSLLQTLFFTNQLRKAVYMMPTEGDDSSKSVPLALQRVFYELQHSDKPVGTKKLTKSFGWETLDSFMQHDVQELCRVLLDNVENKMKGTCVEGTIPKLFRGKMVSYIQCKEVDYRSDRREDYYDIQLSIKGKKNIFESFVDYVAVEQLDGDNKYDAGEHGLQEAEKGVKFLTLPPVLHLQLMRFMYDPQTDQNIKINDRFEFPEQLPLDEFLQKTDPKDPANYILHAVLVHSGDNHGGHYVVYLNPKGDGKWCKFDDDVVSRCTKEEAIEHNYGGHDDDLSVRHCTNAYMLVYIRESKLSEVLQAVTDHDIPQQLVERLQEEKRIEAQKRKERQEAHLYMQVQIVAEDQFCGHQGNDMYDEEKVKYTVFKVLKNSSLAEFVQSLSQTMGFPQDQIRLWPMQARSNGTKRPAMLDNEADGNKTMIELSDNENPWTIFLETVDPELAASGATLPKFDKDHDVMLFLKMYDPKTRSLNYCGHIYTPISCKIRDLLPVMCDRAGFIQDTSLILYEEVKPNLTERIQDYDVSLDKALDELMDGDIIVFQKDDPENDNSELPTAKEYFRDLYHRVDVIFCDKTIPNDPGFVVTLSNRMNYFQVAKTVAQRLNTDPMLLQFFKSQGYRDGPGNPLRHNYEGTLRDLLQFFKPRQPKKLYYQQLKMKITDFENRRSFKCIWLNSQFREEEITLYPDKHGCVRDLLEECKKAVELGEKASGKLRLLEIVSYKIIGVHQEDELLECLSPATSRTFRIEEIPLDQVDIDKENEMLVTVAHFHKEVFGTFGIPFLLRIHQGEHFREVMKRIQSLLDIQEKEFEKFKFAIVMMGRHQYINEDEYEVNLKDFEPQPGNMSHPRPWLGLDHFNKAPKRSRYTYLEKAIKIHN

| Structure (SMILES) | IC50 [nM] |
| --- | --- |
| COC[C@@]1(C)C[C@H](N2CCCc3cc(Cl)cc(-c4ccnc5cc(CN6C(=O)CCC6=O)sc45)c32)CN1 [Example 200, 1-((7-(6-chloro-1-((3S,5R)-5-(methoxymethyl)-5-methylpyrrolidin-3-yl)-1,2,3,4-tetrahydroquinolin-8-yl)thieno[3,2-b]pyridin-2-yl)methyl)pyrrolidine-2,5-dione] | 10 to 100 |
| Cc1cnn(Cc2cc3nccc(-c4cc(Cl)cc5c4N([C@@H]4CN[C@@H](CO)C4)CCO5)c3s2)c(=O)c1 [Example 216, 2-((7-(7-chloro-4-((3S,5R)-5-(hydroxymethyl)pyrrolidin-3-yl)-3,4-dihydro-2H-benzo[b][1,4]oxazin-5-yl)thieno[3,2-b]pyridin-2-yl)methyl)-5-methylpyridazin-3(2H)-one] | < 10 |
| CC(C)(C)c1cnn(Cc2cc3nccc(-c4cc(C#N)cc5c4N([C@@H]4CN[C@@H](CO)C4)CCO5)c3s2)c(=O)c1 [Example 217, 5-(2-((4-(tert-butyl)-6-oxopyridazin-1(6H)-yl)methyl)thieno[3,2-b]pyridin-7-yl)-4-((3S,5R)-5-(hydroxymethyl)pyrrolidin-3-yl)-3,4-dihydro-2H-benzo[b][1,4]oxazine-7-carbonitrile] | < 10 |
| CC1(C)C2C(=O)N(Cc3cc4nccc(-c5cc(C#N)cc6c5N([C@@H]5CN[C@@](C)(CO)C5)CCO6)c4s3)C(=O)C21 (stereo partly drawn) [Example 220, 5-(2-((6,6-dimethyl-2,4-dioxo-3-azabicyclo[3.1.0]hexan-3-yl)methyl)thieno[3,2-b]pyridin-7-yl)-4-((3S,5R)-5-(hydroxymethyl)-5-methylpyrrolidin-3-yl)-3,4-dihydro-2H-benzo[b][1,4]oxazine-7-carbonitrile] | < 10 |
| CC(C)(C)c1cnn(Cc2cc3nccc(-c4cc(C#N)cc5c4N([C@@H]4CN[C@@](C)(CO)C4)CCO5)c3s2)c(=O)c1 [Example 221, 5-[2-[(4-tert-butyl-6-oxo-pyridazin-1-yl)methyl]thieno[3,2-b]pyridin-7-yl]-4-[(3S,5R)-5-(hydroxymethyl)-5-methyl-pyrrolidin-3-yl]-2,3-dihydro-1,4-benzoxazine-7-carbonitrile] | < 10 |
| C[C@]1(CO)C[C@H](N2CCOc3cc(C#N)cc(-c4ccnc5cc(Cn6ncc(C7(C(F)(F)F)CC7)cc6=O)sc45)c32)CN1 [Example 222, 4-[(3S,5R)-5-(hydroxymethyl)-5-methyl-pyrrolidin-3-yl]-5-[2-[[6-oxo-4-[1-(trifluoromethyl)cyclopropyl]pyridazin-1-yl]methyl]thieno[3,2-b]pyridin-7-yl]-2,3-dihydro-1,4-benzoxazine-7-carbonitrile] | < 10 |
| C[C@]1(CO)C[C@H](N2CCOc3cc(C#N)cc(-c4cc[n+]([O-])c5cc(Cn6ncc(C7(C(F)(F)F)CC7)cc6=O)sc45)c32)CN1 [Example 223, 7-(7-cyano-4-((3S,5R)-5-(hydroxymethyl)-5-methylpyrrolidin-3-yl)-3,4-dihydro-2H-benzo[b][1,4]oxazin-5-yl)-2-((6-oxo-4-(1-(trifluoromethyl)cyclopropyl)pyridazin-1(6H)-yl)methyl)thieno[3,2-b]pyridine 4-oxide] | 10 to 100 |
| C[C@]1(CO)C[C@H](N2CCOc3cc(C(F)(F)F)cc(-c4ccnc5cc(CN6C(=O)CCC6=O)sc45)c32)CN1 [Example 224, 1-((7-(4-((3S,5R)-5-(hydroxymethyl)-5-methylpyrrolidin-3-yl)-7-(trifluoromethyl)-3,4-dihydro-2H-benzo[b][1,4]oxazin-5-yl)thieno[3,2-b]pyridin-2-yl)methyl)pyrrolidine-2,5-dione] | < 10 |
| CC(C)(C)c1cnn(Cc2cc3nccc(-c4cc(C#N)cc5c4N([C@@H]4CN[C@@](C)(CO)C4)C(=O)CO5)c3s2)c(=O)c1 [Example 225, 5-(2-((4-(tert-butyl)-6-oxopyridazin-1(6H)-yl)methyl)thieno[3,2-b]pyridin-7-yl)-4-((3S,5R)-5-(hydroxymethyl)-5-methylpyrrolidin-3-yl)-3-oxo-3,4-dihydro-2H-benzo[b][1,4]oxazine-7-carbonitrile] | < 10 |
| C[C@]1(CO)C[C@H](N2C(=O)COc3cc(C#N)cc(-c4ccnc5cc(Cn6ncc(C7(C(F)(F)F)CC7)cc6=O)sc45)c32)CN1 [Example 226, 4-[(3S,5R)-5-(hydroxymethyl)-5-methyl-pyrrolidin-3-yl]-3-oxo-5-[2-[[6-oxo-4-[1-(trifluoromethyl)cyclopropyl]pyridazin-1-yl]methyl]thieno[3,2-b]pyridin-7-yl]-1,4-benzoxazine-7-carbonitrile] | < 10 |
| O=C1CCC(=O)N1Cc1cc2nccc(-c3cc(Cl)cc4c3N(c3cn[nH]c3)C(=O)CC4)c2s1 [Example 228, 1-((7-(6-chloro-2-oxo-1-(1H-pyrazol-4-yl)-1,2,3,4-tetrahydroquinolin-8-yl)thieno[3,2-b]pyridin-2-yl)methyl)pyrrolidine-2,5-dione] | 101 to 1000 |

Continued, values first:

| IC50 [nM] | Structure (SMILES) |
| --- | --- |
| < 10 | CC(C)(O)[C@H]1C[C@H](N2CCCc3cc(Cl)cc(-c4ccnc5cc(CN6C(=O)CCC6=O)sc45)c32)CN1 [Example 189, 1-((7-(6-chloro-1-((3S,5R)-5-(2-hydroxypropan-2-yl)pyrrolidin-3-yl)-1,2,3,4-tetrahydroquinolin-8-yl)thieno[3,2-b]pyridin-2-yl)methyl)pyrrolidine-2,5-dione] |
| < 10 | CC(C)(C)c1cnn(Cc2cc3nccc(-c4cc(C#N)cc5c4N([C@@H]4CN[C@@H](CO)C4)CCC5)c3s2)c(=O)c1 [Example 190, 8-[2-[(4-tert-butyl-6-oxo-pyridazin-1-yl)methyl]thieno[3,2-b]pyridin-7-yl]-1-[(3S,5R)-5-(hydroxymethyl)pyrrolidin-3-yl]-3,4-dihydro-2H-quinoline-6-carbonitrile] |
| < 10 | N#Cc1cc2c(c(-c3ccnc4cc(Cn5c(=O)ccn(C6CC(F)(F)C6)c5=O)sc34)c1)N([C@@H]1CN[C@@H](CO)C1)CCC2 [Example 191, 8-(2-((3-(3,3-difluorocyclobutyl)-2,6-dioxo-2,3-dihydropyrimidin-1(6H)-yl)methyl)thieno[3,2-b]pyridin-7-yl)-1-((3S,5R)-5-(hydroxymethyl)pyrrolidin-3-yl)-1,2,3,4-tetrahydroquinoline-6-carbonitrile] |
| < 10 | N#Cc1cc(-c2ccnc3cc(Cn4ncc(C5(C(F)(F)F)CC5)cc4=O)sc23)c2c(c1)[C@@H]1C[C@@H]1CN2[C@@H]1CN[C@@H](CO)C1 [Example 194a, (1aS,7bR)-3-((3S,5R)-5-(hydroxymethyl)pyrrolidin-3-yl)-4-(2-((6-oxo-4-(1-(trifluoromethyl)cyclopropyl)pyridazin-1(6H)-yl)methyl)thieno[3,2-b]pyridin-7-yl)-1a,2,3,7b-tetrahydro-1H-cyclopropa[c]quinoline-6-carbonitrile] |
| < 10 | C[C@@]1(C(=O)O)C[C@H](N2CCCc3cc(Cl)cc(-c4ccnc5cc(CN6C(=O)CCC6=O)sc45)c32)CN1 [Example 205, (2S,4S)-4-(6-chloro-8-(2-((2,5-dioxopyrrolidin-1-yl)methyl)thieno[3,2-b]pyridin-7-yl)-3,4-dihydroquinolin-1(2H)-yl)-2-methylpyrrolidine-2-carboxylic acid] |
| < 10 | C[C@]1(CO)C[C@H](N2CCCc3cc(C#N)cc(-c4ccnc5cc(CN6C(=O)C7CC7C6=O)sc45)c32)CN1 (stereo partly drawn) [Example 206, 8-(2-((2,4-dioxo-3-azabicyclo[3.1.0]hexan-3-yl)methyl)thieno[3,2-b]pyridin-7-yl)-1-((3S,5R)-5-(hydroxymethyl)-5-methylpyrrolidin-3-yl)-1,2,3,4-tetrahydroquinoline-6-carbonitrile] |
| < 10 | C[C@]1(CO)C[C@H](N2CCCc3cc(Cl)cc(-c4ccnc5cc(Cn6ncc(C7(C(F)(F)F)CC7)cc6=O)sc45)c32)CN1 [Example 207, 2-((7-(6-chloro-1-((3S,5R)-5-(hydroxymethyl)-5-methylpyrrolidin-3-yl)-1,2,3,4-tetrahydroquinolin-8-yl)thieno[3,2-b]pyridin-2-yl)methyl)-5-(1-(trifluoromethyl)cyclopropyl)pyridazin-3(2H)-one] |
| < 10 | C[C@]1(CO)C[C@H](N2CCCc3cc(Cl)cc(-c4cc[n+]([O-])c5cc(CN6C(=O)CCC6=O)sc45)c32)CN1 [Example 208, 7-(6-chloro-1-((3S,5R)-5-(hydroxymethyl)-5-methylpyrrolidin-3-yl)-1,2,3,4-tetrahydroquinolin-8-yl)-2-((2,5-dioxopyrrolidin-1-yl)methyl)thieno[3,2-b]pyridine 4-oxide] |
| < 10 | C[C@]1(CO)C[C@H](N2CCCc3cc(C#N)cc(-c4ccnc5cc(CN6C(=O)CCC6=O)sc45)c32)CN1 [Example 209, 8-(2-((2,5-dioxopyrrolidin-1-yl)methyl)thieno[3,2-b]pyridin-7-yl)-1-((3S,5R)-5-(hydroxymethyl)-5-methylpyrrolidin-3-yl)-1,2,3,4-tetrahydroquinoline-6-carbonitrile] |
| < 10 | C[C@]1(CO)C[C@H](N2CCCc3cc(Cl)cc(-c4ccnc5c(F)c(CN6C(=O)CCC6=O)sc45)c32)CN1 [Example 210, 1-[[7-[6-chloro-1-[(3S,5R)-5-(hydroxymethyl)-5-methyl-pyrrolidin-3-yl]-3,4-dihydro-2H-quinolin-8-yl]-3-fluoro-thieno[3,2-b]pyridin-2-yl]methyl]pyrrolidine-2,5-dione] |
| < 10 | O=C1CCC(=O)N1Cc1cc2nccc(-c3cc(Cl)cc4c3N(C3CNC5(CC(F)C5)C3)CCC4)c2s1 (stereo not drawn) [Example 211, 1-((7-(6-chloro-1-(2-fluoro-5-azaspiro[3.4]octan-7-yl)-1,2,3,4-tetrahydroquinolin-8-yl)thieno[3,2-b]pyridin-2-yl)methyl)pyrrolidine-2,5-dione] |
| < 10 | O=C1C2CC2C(=O)N1Cc1cc2nccc(-c3cc(Cl)cc4c3N([C@@H]3CN[C@@H](CO)C3)CCO4)c2s1 (stereo partly drawn) [Example 214, 3-((7-(7-chloro-4-((3S,5R)-5-(hydroxymethyl)pyrrolidin-3-yl)-3,4-dihydro-2H-benzo[b][1,4]oxazin-5-yl)thieno[3,2-b]pyridin-2-yl)methyl)-3-azabicyclo[3.1.0]hexane-2,4-dione] |
| < 10 | N#Cc1cc2c(c(-c3ccnc4cc(CN5C(=O)C6CC6C5=O)sc34)c1)N([C@@H]1CN[C@@H](CO)C1)CCO2 (stereo partly drawn) [Example 215, 5-(2-((2,4-dioxo-3-azabicyclo[3.1.0]hexan-3-yl)methyl)thieno[3,2-b]pyridin-7-yl)-4-((3S,5R)-5-(hydroxymethyl)pyrrolidin-3-yl)-3,4-dihydro-2H-benzo[b][1,4]oxazine-7-carbonitrile] |
